Test results taken from ChEMBL document CHEMBL3244348, “Antiallergic agents. Xanthone-2,7-dicarboxylic acid derivatives” (1977).

System: Rattus norvegicus
Assay: Antiallergic activity in homocytotropic antiovalbumin antiserum-injected Sprague-Dawley rat assessed as inhibition of passive cutaneous anaphylaxis wheal reaction at 100 mg/kg, po administered 1 hr prior to ovalbumin challenge measured 20 mins after antigen challenge
Format: functional

| SMILES | inhibition in vivo at 100 mg/kg [%] |
| --- | --- |
| O=C(O)c1ccc2oc3ccc(C(=O)O)cc3c(=O)c2c1 | 1 |
| C=CCN(CC=C)C(=O)c1ccc2oc3ccc(C(=O)N(CC=C)CC=C)cc3c(=O)c2c1 | 51 |
| O=C(c1ccc2oc3ccc(C(=O)N4CCCCC4)cc3c(=O)c2c1)N1CCCCC1 | 57 |
| CCOC(=O)c1ccc2oc3ccc(C(=O)OCC)cc3c(=O)c2c1 | 8 |
| CCN(CC)C(=O)c1ccc2oc3ccc(C(=O)N(CC)CC)cc3c(=O)c2c1 | 53 |
| NC(=O)c1ccc2oc3ccc(C(N)=O)cc3c(=O)c2c1 | 34 |
| COCCOCCCNC(=O)c1ccc2oc3ccc(C(=O)NCCCOCCOC)cc3c(=O)c2c1 | 19 |
| O=C(c1ccc2oc3ccc(C(=O)N4CC5CCC(CC5)C4)cc3c(=O)c2c1)N1CC2CCC(CC2)C1 | 48 |
| O=C(c1ccc2oc3ccc(C(=O)N4CCOCC4)cc3c(=O)c2c1)N1CCOCC1 | 42 |
| O=C(c1ccc2oc3ccc(C(=O)N(C4CCCCC4)C4CCCCC4)cc3c(=O)c2c1)N(C1CCCCC1)C1CCCCC1 | 42 |
| CN(C)C(=O)c1ccc2oc3ccc(C(=O)N(C)C)cc3c(=O)c2c1 | 69 |
| CNC(=O)c1ccc2oc3ccc(C(=O)NC)cc3c(=O)c2c1 | 19 |
| CCCNC(=O)c1ccc2oc3ccc(C(=O)NCCC)cc3c(=O)c2c1 | 19 |
